Where two headings read alike, the source gives them in different places. Some results are limits rather than exact numbers.

One assay concerns the target Pim-2 (Homo sapiens (Human), UniProt Q9P1W9). Briefly: Pim enzyme assay (HTRF, phosphorylation of biotinylated-BAD (S112) peptide), Pim-2. Type of assay: biochemical. An excerpt:
(§1) Full-length human cDNAs encoding Pim-1 (MGC ID 3913552) or Pim-2 (IMAGE ID 5092935) were purchased from Invitrogen, Carlsbad, Calif. These cDNAs were used as templates in PCR reactions to produce full-length DNA clones of the PIMs. Oligonucleotide PCR primers for Pim-1 were 5′-[…]-3′ and 5′-[…]-3′. Oligonucleotide PCR primers for Pim-2 were 5′-[…]-3′ and 5′-[…]-3′. PCR products were digested with BclI and EcoRI for Pim-1 and BamHI and EcoRI for Pim-2 and ligated into a modified baculovirus transfer vector (pFastBac 1) cleaved with BamHI and EcoRI. For bacterial expression, the same cleaved PCR products encoding Pim-1 or Pim-2 were ligated into a modified E. coli expression vector pET28(a) cleaved with BamHI and EcoRI. Amino-terminal hexahistidine tags followed by a thrombin cleavage site were previously added to the vectors using standard methods of molecular biology. Recombinant baculoviruses expressing Pim-1 or Pim-2 were made using standard methods (Fastbac manual, Invitrogen, Carlsbad, Calif.). Infection of Sf9 cells was done at an m.o.i. of greater than 5 for 24-48 h. Cells were harvested by centrifugation and frozen at −80 C. For E. coli expression, cells carrying pET28-His6-Th-Pim-1 or pET28-His6-Th-Pim-2 were picked from a single colony and grown o/n in LB media. The o/n culture was used to inoculate a 2 liter flask with 500 mL media. This was grown o/n and used to inoculate 15-20 liters of Terrific Broth in a New Brunswick Scientific fermentor. The E. coli were grown at 37° C. to and OD600>1.6. The temperature was dropped to 18° C. and o/n expression was induced with 0.5 mM IPTG. Cells were harvested by centrifugation and frozen at −80° C.
(§2) The frozen cell pellets were thawed by stirring in chilled lysis buffer (0.05 M HEPES, pH 8.0, 0.25 M NaCl, 0.01 M 2-mercaptoethanol, 10% (w/v) glycerol, 0.5% (v/v) protease inhibitor cocktail (Sigma P-8340) at a ratio of 1 L/200 g cells until homogeneous. The thawed suspension was applied to a microfluidizer at 10,000 PSI to disrupt the cells and the whole lysates were clarified by centrifugation at 50,000×g for 90 min, 4° C. Imidazole was added to the clarified lysate to a final concentration of 2.5 mM and the lysate was mixed with 10 mL of Talon resin (Clontech) and the slurry rocked gently overnight at 4° C. The slurry was centrifuged at 1,000×g for 5 min, the supernatant decanted, and the resin suspended in 40 mL of lysis wash buffer (lysis buffer at 0.75 M NaCl). This step was repeated 3× and the resin was transferred to a 2.5 cm glass column. Ten column volumes of wash buffer (0.05 M HEPES, pH 8.0, 0.1 M NaCl, 0.01 M 2-mercaptoethanol, 10% (w/v) glycerol) were applied to the resin followed by 10 column volumes of elution buffer (0.05 M HEPES, pH 8.0, 0.25 M NaCl, 0.01 M 2-mercaptoethanol, 10% (w/v) glycerol, 0.1 M imidazole). Fractions were analyzed by SDS-PAGE and those containing the protein of interest were pooled and concentrated. The concentrated protein was applied to an Amersham Superdex 75 (XK 26/60) column equilibrated in 0.025 M Tris-HCl, pH 7.5, 0.1 M NaCl, 0.01 M 2-mercaptoethanol, 10% (w/v) glycerol. […] Fractions containing the monomeric protein of interest were pooled, concentrated to ˜2 mg/mL, and stored at −80° C.
(§3) The phosphorylation of biotinylated-BAD (S112) peptide by full length recombinant Pim-1, Pim-2, or Pim-3 protein was detected with streptavidin:Allophycocyanin (APC) conjugate and a europium (Eu) labeled antibody directed against phosphorylated-BAD (S112). Excitation of Eu by a high energy laser light (337 nm) leads to a transfer of energy to the APC molecule, and results in an emission at 665 nm. The fluorescence is directly proportional to the amount of phosphorylated BAD peptide present in the reaction.

In another assay the target is Pim-1 (Homo sapiens (Human), UniProt P11309). In words: Pim enzyme assay (HTRF, phosphorylation of biotinylated-BAD (S112) peptide), Pim-1. Conditions: full length recombinant Pim-1, biotinylated-BAD (S112) peptide, HTRF. In kind it is biochemical.
Text: as §1, §2, §3
In general terms: In TR-FRET formats the signal depends on donor and acceptor labels being close together.

[1] abbreviates: full length recombinant Pim-2, biotinylated-BAD (S112) peptide, HTRF, read-out: Pim2_IC50.
Where [2] appears, read: 96-well, read-out: Pim-1 IC50 IP.
Where [3] appears, read: full length recombinant Pim-2, biotinylated-BAD (S112) peptide, HTRF, 96-well, read-out: Pim-2 IC50 IP.

Chain of Pim-1 (P11309 whole entry): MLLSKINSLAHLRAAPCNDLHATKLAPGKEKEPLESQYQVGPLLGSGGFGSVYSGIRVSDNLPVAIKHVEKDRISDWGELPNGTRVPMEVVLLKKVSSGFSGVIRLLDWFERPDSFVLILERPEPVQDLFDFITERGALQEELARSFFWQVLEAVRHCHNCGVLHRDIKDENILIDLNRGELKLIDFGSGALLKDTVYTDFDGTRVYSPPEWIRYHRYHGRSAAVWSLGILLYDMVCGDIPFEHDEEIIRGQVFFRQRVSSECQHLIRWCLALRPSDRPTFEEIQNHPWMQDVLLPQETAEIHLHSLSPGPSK
Chain of Pim-2 (Q9P1W9 whole entry): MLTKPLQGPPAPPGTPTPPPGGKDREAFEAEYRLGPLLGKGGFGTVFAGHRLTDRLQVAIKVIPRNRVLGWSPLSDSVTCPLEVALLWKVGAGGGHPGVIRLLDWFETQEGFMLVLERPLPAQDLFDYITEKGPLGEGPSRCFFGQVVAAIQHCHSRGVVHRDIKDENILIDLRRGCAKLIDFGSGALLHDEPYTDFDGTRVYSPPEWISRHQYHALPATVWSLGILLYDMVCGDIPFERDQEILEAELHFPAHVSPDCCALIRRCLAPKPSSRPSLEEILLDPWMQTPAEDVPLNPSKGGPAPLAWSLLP

Consider `O=c1ccc(-c2ccncc2Nc2ncc3ccc(-c4c(F)cccc4F)nn23)c[nH]1` [Example 28, 3′-((2-(2,6-difluorophenyl)imidazo[1,5-b]pyridazin-7-yl)amino)-3,4′-bipyridin-6(1 H)-one], for which the IC50 on Pim-2 (setting [1]) was 281 nM; at Pim-1 (read-out: Pim_1_IC50), 38 nM.

Turning to `CN(C)c1ccncc1Nc1ncc2ccc(-c3c(F)cccc3F)nn12` [Example 26, N^3-(2-(2,6-difluorophenyl)imidazo[1,5-b]pyridazin-7-yl)-N^4,N^4-dimethyl-3,4-pyridinediamine], the IC50 on Pim-2 (setting [1]) is more than 1000 nM; at Pim-1 (read-out: Pim_1_IC50), 534 nM.

Regarding `N[C@@H]1C=C(c2ccncc2Nc2ncc3ccc(-c4c(F)cccc4F)nn23)CCC1` (single isomer, unassigned) [Example 84, N-(4-(3-aminocyclohex-1-en-1-yl)pyridin-3-yl)-2-(2,6-difluorophenyl)imidazo[1,5-b]pyridazin-7-amine tris(2,2,2-trifluoroacetate)], the IC50 at Pim-1 (setting [2]) was found to be 30.5 nM.

In the case of `N[C@H]1CCN(c2ccncc2Nc2ncc3ccc(-c4c(F)cccc4F)nn23)C1` [Example 13, N-(4-((3S)-3-amino-1-pyrrolidinyl)-3-pyridinyl)-2-(2,6-difluorophenyl)imidazo[1,5-b]pyridazin-7-amine bis(2,2,2-trifluoroacetate)], the IC50 on Pim-2 (setting [1]) is more than 1000 nM; at Pim-1 (read-out: Pim_1_IC50), 568 nM.

In the case of `CN[C@H]1CCCN(c2ccncc2Nc2ncc3ccc(-c4c(F)cccc4F)nn23)C1` [Example 59, (S)-2-(2,6-difluorophenyl)-N-(4-(3-(methylamino)piperidin-1-yl)pyridin-3-yl)imidazo[1,5-b]pyridazin-7-amine], the IC50 at Pim-2 (setting [3]) was determined as 31 nM; on Pim-1 (setting [2]), 2 nM.

Regarding `O[C@@H]1CCCN(c2ccncc2Nc2ncc3ccc(-c4ccccc4Cl)nn23)C1` [Example 17, (3R)-1-(3-((2-(2-chlorophenyl)imidazo[1,5-b]pyridazin-7-yl)amino)-4-pyridinyl)-3-piperidinol], the values for the IC50 on Pim-2 (setting [1]) and on Pim-1 (read-out: Pim_1_IC50) were more than 1000 nM and 192 nM, respectively.

Consider `Cc1oncc1-c1ccncc1Nc1ncc2ccc(-c3c(F)cccc3F)nn12` [Example 102, 2-(2,6-Difluorophenyl)-N-(4-(5-methylisoxazol-4-yl)pyridin-3-yl)imidazo[1,5-b]pyridazin-7-amine bis(2,2,2-trifluoroacetate)], for which, at Pim-2 (read-out: Pim-2 IC50 IP), the IC50 is more than 1000 nM.

`N[C@H]1CCCN(c2ccncc2Nc2ncc3ccc(-c4ncccc4F)nn23)C1` [Example 40, N-(4-((3S)-3-amino-1-piperidinyl)-3-pyridinyl)-2-(3-fluoro-2-pyridinyl)imidazo [1,5-b]pyridazin-7-amine]: the IC50 on Pim-2 (setting [3]) was 1.1 nM.

`Fc1cccnc1-c1ccc2cnc(Nc3cnccc3N3CCCCC3)n2n1` [Example 71, 2-(3-Fluoropyridin-2-yl)-N-(4-(piperidin-1-yl)pyridin-3-yl)imidazo[1,5-b]pyridazin-7-amine bis(2,2,2-trifluoroacetate)]: the IC50 on Pim-1 (setting [2]) came out at 38.5 nM.

As for `O[C@@H]1CCN(c2ccncc2Nc2ncc3ccc(-c4c(F)cccc4F)nn23)C[C@H]1O` (single isomer, unassigned) [Example 34, 1-(3-((2-(2,6-difluorophenyl)imidazo[1,5-b]pyridazin-7-yl)amino)-4-pyridinyl)-3,4-trans-piperidinediol], the IC50 on Pim-1 (setting [2]) turned out to be 66.9 nM.

Turning to `Fc1cccc(F)c1-c1ccc2cnc(Nc3cnccc3N3CCCCC3)n2n1` [Example 70, 2-(2,6-difluorophenyl)-N-(4-(piperidin-1-yl)pyridin-3-yl)imidazo[1,5-b]pyridazin-7-amine bis(2,2,2-trifluoroacetate)], the IC50 on Pim-1 (setting [2]) came out at 29.6 nM.

In the case of `CC(C)CN(C)c1ccncc1Nc1ncc2ccc(-c3c(F)cccc3F)nn12` [Example 81, N3-(2-(2,6-Difluorophenyl)imidazo[1,5-b]pyridazin-7-yl)-N4-isobutyl-N4-methylpyridine-3,4-diamine], the IC50 on Pim-1 (setting [2]) amounted to 33.8 nM.
